Assay results taken from patent US8008303B2, “Biphenyl derivatives and their use in treating hepatitis C” (AstraZeneca AB, priority 2005, dated 2011).
Like-named read-outs stand apart in the source and are kept apart here.

Key:
[1] = tested on: HCV replicon cells Huh 9B; test: HCV replicon assay (luciferase readout); assay type: cell-based
Experimental: (§1) HCV replicon cells Huh 9B (ReBlikon), containing the firefly luciferase-ubiquitin-neomycin phosphotransferase fusion protein and EMCV-IRES driven HCV polyprotein with cell culture adaptive mutations.
Cells were cultured at 37° C. in a 5% CO2 environment and split twice a week on seeding at 2×10^6 cells/flask on day 1 and 1×10^6 3 days later. G418 at 0.5 mg/ml was added to the culture medium but not the assay medium.
The culture medium consisted of DMEM with […] glucose and glutamax (Gibco 61965-026) supplemented with 1× non-essential amino acids (Invitrogen 11140-035), penicillin (100 IU/ml)/streptomycin (100 μg/ml) (Invitrogen 15140-122), FCS (10%, 50 ml) and 1 mg/ml G418 (Invitrogen 10131-027) & 10% Australian foetal calf serum (Invitrogen 10099-141).
A flask of cells was trypsinised and a cell count carried out. Cells were diluted to 100,000 cells/ml and 100 μl of this used to seed one opaque white 96-well plate (for the replicon assay) and one flat-bottomed clear plate (for the tox assay) for every seven compounds to be tested for IC50. Wells G12 and H12 were left empty in the clear plate as the blank. Plates were then incubated at 37° C. in a 5% CO2 environment for 24 h.
(§2) On the following day compound dilutions are made up in medium at twice their desired final concentration in a clear round bottomed plate. All dilutions have a final DMSO concentration of 1%.
Once the dilution plate had been made up, controls and compounds were transferred to the assay plate (containing the cells) at 100 μl /well in duplicate plates. Exception: no compound was added to wells A1 and A2 of either plate and 100 μl of 1% DMSO was added to these instead. Plates were then incubated at 37° C. with 5% CO2 for 72 h.
At the end of the incubation time, the cells in the white plate were harvested by washing 23.5 mM beetle luciferin (Promega E1603), 26 mM ATP (Sigma 0-2060) in […] Tris buffer pH 7.8 aliquoted and stored at −80 C was thawed and diluted 1:50 in luciferase assay buffer (20 mM Tricine (Sigma T-0377), 1.07 mM magnesium carbonate hydroxide (Sigma M-5671), 0.1 mM EDTA (Sigma E-5134), 2.67 mM MgSO4 (BDH 101514Y), 33.3 mM dithiothreitol (Sigma 150460) pH 7.8).
The M injector of the microplate luminometer (Lmax, Molecular Devices) was primed with 5×300 μl injections of the diluted substrate. After 5-60 min incubation in lysis buffer at room temperature, a plate was inserted into the luminometer and 100 μl luciferase assay reagent was added by the injector on the luminometer. The signal was measured using a 1 second delay followed by a 4 second measurement programme.

[2] = tested on: HCV replicon cells Huh 9B; assay type: cell-based
Experimental: as §1
A flask of cells was trypsinised and a cell count carried out. […] Wells G12 and H12 were left empty in the clear plate as the blank. Plates were then incubated at 37° C. in a 5% CO2 environment for 24 h.
as §2
Exception: no compound was added to wells A1 and A2 of either plate and 100 μl of 1% DMSO was added to these instead. Plates were then incubated at 37° C. with 5% CO2 for 72 h.
The clear plate was stained with 100 μl 0.5% methylene blue in 50% ethanol at room temperature for 1 h, followed by solvation of the absorbed methylene blue in 100 μl per well of 1% lauroylsarcosine. Absorbance of the plate was measured on a microplate spectrophotometer (Molecular Devices) and the absorbance for each concentration of compound expressed as a proportion of the relative DMSO control.

[3] = Hepatitis C virus, 72 h, concentration reducing replicon level (luciferase activity) by 50% vs untreated cell control, 72 h incubation
[4] = concentration reducing total cell area by 50% relative to DMSO controls, methylene blue, absorbance 620 nm, 72 h incubation

CNC(=O)c1ccc(NC(=O)c2ccc(C)c(-c3ccc(C(=O)Nc4ccc(CN5CCS(=O)(=O)CC5)cc4)cc3)c2)cc1 [Example 141, 6-Methyl-biphenyl-3,4′-dicarboxylic acid 4′-{[4-(1,1-dioxo-1lambda*6*-thiomorpholin-4-ylmethyl)-phenyl]-amide} 3-[(4-methylcarbamoyl-phenyl)-amide]]
IC50 [1]: 1 to 5 µM
TD50 [2]: * (key: * < 50 μM; ** > 50 μM)

Cc1ccc(NC(=O)c2cncs2)cc1-c1ccc(C(=O)Nc2ccc(CN3CCS(=O)(=O)CC3)cc2)cc1 [Example 179, Thiazole-5-carboxylic acid {4′-[4-(1,1-dioxo-1lambda*6*-thiomorpholin-4-ylmethyl)-phenylcarbamoyl]-6-methyl-biphenyl-3-yl}-amide]
IC50 [1, 3]: < 1 µM
TD50 [2, 4]: * (* < 50 μM)

CCCS(=O)(=O)N1CCN(Cc2ccc(NC(=O)c3ccc(-c4cc(NC(=O)[C@H]5CCCCN5)ccc4Cl)cc3)cc2)CC1 [Example 251, (R)-Piperidine-2-carboxylic acid {6-chloro-4′-[4-(4-(propane-1-sulfonyl)-piperazin-1-ylmethyl)-phenylcarbamoyl]-biphenyl-3-yl}-amide]
IC50 [1, 3]: < 1 µM
TD50 [2, 4]: * (* < 50 μM)

Cc1ccc(NC(=O)C2CCCCC2)cc1-c1ccc(C(=O)Nc2ccc(-c3ccno3)cc2)cc1 [Example 231, 5′-(Cyclohexanecarbonyl-amino)-2′-methyl-biphenyl-4-carboxylic acid (4-isoxazol-5-yl-phenyl)-amide]
IC50 [1, 3]: > 5 µM
TD50 [2, 4]: * (* < 50 μM)

Cc1ccc(NC(=O)C2CC2)cc1-c1ccc(C(=O)Nc2ccc(CN3CCCCC3)cc2)cc1 [Example 228, 5′-(Cyclopropanecarbonyl-amino)-2′-methyl-biphenyl-4-carboxylic acid (4-piperidin-1-ylmethyl-phenyl)-amide]
IC50 [1, 3]: 1 to 5 µM
TD50 [2, 4]: * (* < 50 μM)

CS(=O)(=O)N1CCN(Cc2ccc(NC(=O)c3ccc(Cl)c(-c4ccc(C(=O)Nc5ccc(N6CCOCC6)cc5)cc4)c3)cc2)CC1 [Example 265, 6-Chloro-biphenyl-3,4′-dicarboxylic acid 3-{[4-(4-methanesulfonyl-piperazin-1-ylmethyl)-phenyl]-amide} 4′-[(4-morpholin-4-yl-phenyl)-amide]]
IC50 [1]: < 1 µM
TD50 [2]: * (key: * < 50 μM; ** > 50 μM)

Cc1ccc(C(=O)Nc2ccc(N(C)C)cc2)cc1-c1ccc(C(=O)Nc2ccc(CN3CCS(=O)(=O)CC3)cc2)cc1 [Example 130, 6-Methyl-biphenyl-3,4′-dicarboxylic acid 3-[(4-dimethylamino-phenyl)-amide] 4′-{[4-(1,1-dioxo-1lambda*6*-thiomorpholin-4-ylmethyl)-phenyl]-amide}]
IC50 [1]: < 1 µM
TD50 [2]: * (key: * < 50 μM; ** > 50 μM)

Cc1ccc(CNc2cccc(Br)c2)cc1-c1ccc(C(=O)Nc2ccc(CN3CCS(=O)(=O)CC3)cc2)cc1 [Example 198, 5′-[(3-Bromo-phenylamino)-methyl]-2′-methyl-biphenyl-4-carboxylic acid [4-(1,1-dioxo-1lambda*6*-thiomorpholin-4-ylmethyl)-phenyl]-amide]
IC50 [1, 3]: 1 to 5 µM
TD50 [2, 4]: * (* < 50 μM)

CCCN(C)Cc1ccc(NC(=O)c2ccc(-c3cc(C(=O)Nc4ccc(N5CCOCC5)cc4)ccc3C)cc2)cc1 [Example 76, 6-Methyl-biphenyl-3,4′-dicarboxylic acid 4′-({4-[(methyl-propyl-amino)-methyl]-phenyl}-amide) 3-[(4-morpholin-4-yl-phenyl)-amide]]
IC50 [1]: 1 to 5 µM
TD50 [2]: * (key: * < 50 μM; ** > 50 μM)

CCCS(=O)(=O)N1CCN(Cc2ccc(NC(=O)c3ccc(-c4cc(NC(=O)[C@@H]5CCCN5)ccc4OC(F)(F)F)cc3)cc2)CC1 [Example 236, (S)-Pyrrolidine-2-carboxylic acid (4′-{4-[4-(propane-1-sulfonyl)-piperazin-1-ylmethyl]-phenylcarbamoyl}-6-trifluoromethoxy-biphenyl-3-yl)-amide]
IC50 [1, 3]: 1 to 5 µM
TD50 [2, 4]: * (* < 50 μM)

CCNC(=O)Nc1ccc(C)c(-c2ccc(C(=O)Nc3ccc(CN4CCS(=O)(=O)CC4)cc3)cc2)c1 [Example 188, 5′-(3-Ethyl-ureido)-2′-methyl-biphenyl-4-carboxylic acid [4-(1,1-dioxo-1lambda*6*-thiomorpholin-4-ylmethyl)-phenyl]-amide]
IC50 [1, 3]: < 1 µM
TD50 [2, 4]: * (* < 50 μM)

Cc1ccc(NC(=O)c2ccc(N3CCOCC3)cc2)cc1-c1ccc(C(=O)NCc2cccc(Br)c2)cc1 [Example 88, 2′-Methyl-5′-(4-morpholin-4-yl-benzoylamino)-biphenyl-4-carboxylic acid 3-bromo-benzylamide]
IC50 [1, 3]: 1 to 5 µM
TD50 [2, 4]: ** (** > 50 μM)

Cc1ccc(C(=O)Nc2ccc(N3CCOCC3)cc2)cc1-c1ccc(C(=O)Nc2ccc3[nH]ccc3c2)cc1 [Example 45, 6-Methyl-biphenyl-3,4′-dicarboxylic acid 4′-[(1H-indol-5-yl)-amide] 3-[(4-morpholin-4-yl-phenyl)-amide]]
IC50 [1]: 1 to 5 µM
TD50 [2]: ** (key: * < 50 μM; ** > 50 μM)

Cc1ccc(C(=O)Nc2ccc(N3CCOCC3)cc2)cc1-c1ccc(C(=O)Nc2cc(Br)cc3cc[nH]c23)cc1 [Example 55, 6-Methyl-biphenyl-3,4′-dicarboxylic acid 4′-[(5-bromo-1H-indol-7-yl)-amide] 3-[(4-morpholin-4-yl-phenyl)-amide]]
IC50 [1]: 1 to 5 µM
TD50 [2]: ** (key: * < 50 μM; ** > 50 μM)

Cc1ccc(NC(=O)C(C)(C)C)cc1-c1ccc(C(=O)Nc2ccc(CN3CCS(=O)(=O)CC3)cc2)cc1 [Example 184, 5′-(2,2-Dimethyl-propionylamino)-2′-methyl-biphenyl-4-carboxylic acid [4-(1,1-dioxo-1lambda*6*-thiomorpholin-4-ylmethyl)-phenyl]-amide]
IC50 [1, 3]: < 1 µM
TD50 [2, 4]: * (* < 50 μM)

Cc1ccc(C(=O)Nc2ccc(N3CCOCC3)cc2)cc1-c1ccc(CNCc2cccc(Cl)c2)cc1 [Example 96, 4′-[(3-Chloro-benzylamino)-methyl]-6-methyl-biphenyl-3-carboxylic acid (4-morpholin-4-yl-phenyl)-amide]
IC50 [1, 3]: 1 to 5 µM
TD50 [2, 4]: ** (** > 50 μM)

COCCNC(=O)c1ccc(C)c(-c2ccc(C(=O)Nc3ccc(CN4CCS(=O)(=O)CC4)cc3)cc2)c1 [Example 126, 6-Methyl-biphenyl-3,4′-dicarboxylic acid 4′-{[4-(1,1-dioxo-1lambda*6*-thiomorpholin-4-ylmethyl)-phenyl]-amide} 3-[(2-methoxy-ethyl)-amide]]
IC50 [1]: 1 to 5 µM
TD50 [2]: * (key: * < 50 μM; ** > 50 μM)

Cc1ccc(C(=O)Nc2ccc(N3CCOCC3)cc2)cc1-c1ccc(CNC(CO)Cc2cnc[nH]2)cc1 (stereo not shown) [Example 101, 4′-{[1-Hydroxymethyl-2-(3H-imidazol-4-yl)-ethylamino]-methyl}-6-methyl-biphenyl-3-carboxylic acid (4-morpholin-4-yl-phenyl)-amide]
IC50 [1, 3]: < 1 µM
TD50 [2, 4]: * (* < 50 μM)

CC(C)S(=O)(=O)N1CCN(Cc2ccc(NC(=O)c3ccc(-c4cc(NC(=O)NC5CCCCC5)ccc4Cl)cc3)cc2)CC1 [Example 254, 2′-Chloro-5′-(3-cyclohexyl-ureido)-biphenyl-4-carboxylic acid {4-[4-(propane-2-sulfonyl)-piperazin-1-ylmethyl]-phenyl}-amide]
IC50 [1, 3]: < 1 µM
TD50 [2, 4]: * (* < 50 μM)

Cc1ccc(NC(=O)C2CCCCCC2)cc1-c1ccc(C(=O)Nc2ccc(CN3CCS(=O)(=O)CC3)cc2)cc1 [Example 164, 5′-(Cycloheptanecarbonyl-amino)-2′-methyl-biphenyl-4-carboxylic acid [4-(1,1-dioxo-1lambda*6*-thiomorpholin-4-ylmethyl)-phenyl]-amide]
IC50 [1, 3]: < 1 µM
TD50 [2, 4]: * (* < 50 μM)
